From ChEMBL document CHEMBL1201862, “PubChem BioAssay data set” (2004)
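Where inhibition never reached the appropriate level, the endpoint shown equals the highest concentration tested. Otherwise, values were interpolated linearly from a five-concentration, 48-hour dose response in 96-well plates. GI50 is the concentration that inhibits growth by half.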 Active and inactive are the calls of the source. No stated cut-off is given here; in the data, active = GI50 up to about 1.1 µM and inactive = higher.

What was measured:
Test in all cases: growth of human tumour cells (NCI), 48 h
786-0 = tested on: 786-0
A498 = tested on: A498
A549 = tested on: A549
ACHN = tested on: ACHN
BT-549 = tested on: BT-549
CAKI-1 = tested on: CAKI-1
CCRF-CEM = tested on: CCRF-CEM
EKVX = tested on: EKVX
HCC 2998 = tested on: HCC 2998
HCT-116 = tested on: HCT-116
HCT-15 = tested on: HCT-15
HL-60 = tested on: HL-60
HOP-62 = tested on: HOP-62
HOP-92 = tested on: HOP-92
HT-29 = tested on: HT-29
Hs-578T = tested on: Hs-578T
IGROV-1 = tested on: IGROV-1
K562 = tested on: K562
KM12 = tested on: KM12
LOX IMVI = tested on: LOX IMVI
M14 = tested on: M14
MCF7 = tested on: MCF7
MDA-MB-231 = tested on: MDA-MB-231
MDA-MB-435 = tested on: MDA-MB-435
MOLT-4 = tested on: MOLT-4
Malme-3M = tested on: Malme-3M
NCI-H226 = tested on: NCI-H226
NCI-H23 = tested on: NCI-H23
NCI-H460 = tested on: NCI-H460
NCI-H522 = tested on: NCI-H522
NCI/ADR-RES = tested on: NCI/ADR-RES
OVCAR-3 = tested on: OVCAR-3
OVCAR-4 = tested on: OVCAR-4
OVCAR-5 = tested on: OVCAR-5
OVCAR-8 = tested on: OVCAR-8
PC-3 = tested on: PC-3
RPMI-8226 = tested on: RPMI-8226
RXF 393 = tested on: RXF 393
SF-268 = tested on: SF-268
SF-295 = tested on: SF-295
SF-539 = tested on: SF-539
SK-MEL-28 = tested on: SK-MEL-28
SK-MEL-2 = tested on: SK-MEL-2
SK-MEL-5 = tested on: SK-MEL-5
SK-OV-3 = tested on: SK-OV-3
SN12C = tested on: SN12C
SNB-19 = tested on: SNB-19
SNB-75 = tested on: SNB-75
SW-620 = tested on: SW-620
T47D = tested on: T47D
TK-10 = tested on: TK-10
U-251 = tested on: U-251
UACC-257 = tested on: UACC-257
UACC-62 = tested on: UACC-62
UO-31 = tested on: UO-31
COLO 205 = tested on: COLO 205
DU-145 = tested on: DU-145
SR = tested on: SR

NC(=O)c1ccccc1NC(=O)C(=O)C(c1cnc2ccc([N+](=O)[O-])cc2n1)[N+](=O)[O-] (stereo unspecified)
GI50 (786-0): > 100 µM (inactive) | GI50 (A498): > 100 µM (inactive) | GI50 (A549): > 100 µM (inactive) | GI50 (ACHN): 23.5 µM (inactive) | GI50 (BT-549): > 100 µM (inactive) | GI50 (CAKI-1): > 100 µM (inactive) | GI50 (CCRF-CEM): 39.2 µM (inactive) | GI50 (EKVX): > 100 µM (inactive) | GI50 (HCC 2998): > 100 µM (inactive) | GI50 (HCT-116): 87.7 µM (inactive) | GI50 (HCT-15): 54.6 µM | GI50 (HL-60): > 100 µM (inactive) | GI50 (HOP-62): > 100 µM (inactive) | GI50 (HOP-92): > 100 µM (inactive) | GI50 (HT-29): > 100 µM (inactive) | GI50 (Hs-578T): > 100 µM (inactive) | GI50 (IGROV-1): > 100 µM (inactive) | GI50 (K562): > 100 µM (inactive) | GI50 (KM12): 54.6 µM (inactive) | GI50 (LOX IMVI): 40.5 µM (inactive) | GI50 (M14): > 100 µM (inactive) | GI50 (MCF7): 62.1 µM (inactive) | GI50 (MDA-MB-231): > 100 µM (inactive) | GI50 (MDA-MB-435): > 100 µM (inactive) | GI50 (MOLT-4): 46.3 µM (inactive) | GI50 (Malme-3M): > 100 µM (inactive) | GI50 (NCI-H226): > 100 µM (inactive) | GI50 (NCI-H23): > 100 µM (inactive) | GI50 (NCI-H460): 64.9 µM (inactive) | GI50 (NCI-H522): 33.3 µM (inactive) | GI50 (NCI/ADR-RES): > 100 µM (inactive) | GI50 (OVCAR-3): > 100 µM (inactive) | GI50 (OVCAR-4): 53.6 µM (inactive) | GI50 (OVCAR-5): > 100 µM (inactive) | GI50 (OVCAR-8): > 100 µM (inactive) | GI50 (PC-3): > 100 µM (inactive) | GI50 (RPMI-8226): > 100 µM (inactive) | GI50 (RXF 393): > 100 µM (inactive) | GI50 (SF-268): > 100 µM (inactive) | GI50 (SF-295): > 100 µM (inactive) | GI50 (SF-539): > 100 µM (inactive) | GI50 (SK-MEL-28): > 100 µM (inactive) | GI50 (SK-MEL-2): > 100 µM (inactive) | GI50 (SK-MEL-5): 77.8 µM (inactive) | GI50 (SK-OV-3): > 100 µM (inactive) | GI50 (SN12C): > 100 µM (inactive) | GI50 (SNB-19): 79.1 µM (inactive) | GI50 (SNB-75): > 100 µM (inactive) | GI50 (SW-620): > 100 µM (inactive) | GI50 (T47D): > 100 µM (inactive) | GI50 (TK-10): > 100 µM (inactive) | GI50 (U-251): > 100 µM (inactive) | GI50 (UACC-257): > 100 µM (inactive) | GI50 (UACC-62): > 100 µM (inactive) | GI50 (UO-31): 28.9 µM (inactive)

COC(=O)C1(C(=O)OC)N=C(C)OC1c1ccccc1O (stereo unspecified)
GI50 (786-0): > 100 µM (inactive) | GI50 (A498): > 100 µM (inactive) | GI50 (A549): > 100 µM (inactive) | GI50 (ACHN): > 100 µM (inactive) | GI50 (BT-549): > 100 µM (inactive) | GI50 (CAKI-1): > 100 µM (inactive) | GI50 (CCRF-CEM): > 100 µM (inactive) | GI50 (COLO 205): > 100 µM (inactive) | GI50 (DU-145): > 100 µM (inactive) | GI50 (EKVX): > 100 µM (inactive) | GI50 (HCC 2998): > 100 µM (inactive) | GI50 (HCT-116): > 100 µM (inactive) | GI50 (HCT-15): > 100 µM | GI50 (HL-60): > 100 µM (inactive) | GI50 (HOP-62): > 100 µM (inactive) | GI50 (HOP-92): > 100 µM (inactive) | GI50 (IGROV-1): > 100 µM (inactive) | GI50 (K562): > 100 µM (inactive) | GI50 (KM12): > 100 µM (inactive) | GI50 (LOX IMVI): > 100 µM (inactive) | GI50 (M14): > 100 µM (inactive) | GI50 (MCF7): > 100 µM (inactive) | GI50 (MDA-MB-435): > 100 µM (inactive) | GI50 (MOLT-4): > 100 µM (inactive) | GI50 (NCI-H226): > 100 µM (inactive) | GI50 (NCI-H23): > 100 µM (inactive) | GI50 (NCI-H460): > 100 µM (inactive) | GI50 (NCI/ADR-RES): > 100 µM (inactive) | GI50 (OVCAR-3): > 100 µM (inactive) | GI50 (OVCAR-4): > 100 µM (inactive) | GI50 (OVCAR-5): > 100 µM (inactive) | GI50 (OVCAR-8): > 100 µM (inactive) | GI50 (PC-3): > 100 µM (inactive) | GI50 (RPMI-8226): > 100 µM (inactive) | GI50 (RXF 393): > 100 µM (inactive) | GI50 (SF-295): > 100 µM (inactive) | GI50 (SK-MEL-28): > 100 µM (inactive) | GI50 (SK-MEL-2): > 100 µM (inactive) | GI50 (SK-MEL-5): > 100 µM (inactive) | GI50 (SK-OV-3): > 100 µM (inactive) | GI50 (SN12C): > 100 µM (inactive) | GI50 (SNB-19): > 100 µM (inactive) | GI50 (SNB-75): > 100 µM (inactive) | GI50 (SR): > 100 µM (inactive) | GI50 (SW-620): > 100 µM (inactive) | GI50 (T47D): > 100 µM (inactive) | GI50 (TK-10): > 100 µM (inactive) | GI50 (U-251): > 100 µM (inactive) | GI50 (UACC-257): > 100 µM (inactive) | GI50 (UACC-62): > 100 µM (inactive) | GI50 (UO-31): > 100 µM (inactive)
